Test results from ChEMBL document CHEMBL5715954, “Silencing c-Myc translation as a therapeutic strategy through targeting PI3Kδ and CK1ε in hematological malignancies” (Blood, 2017).

Key:
Design in all cases: scale not given: the % may be the effect or the level left
[1] = biological target: T1, Serine/threonine-protein kinase ULK1 (Homo sapiens) (UniProt O75385); experiment: Inhibition of human ULK1 assessed as enzyme activity at 1 uM using myelin basic protein as substrate preincubated for 20 mins followed by [gamma-33P]-ATP addition and measured after 120 mins by radiometric Hot-SpotSM Kinase assay relative to control
T1 sequence (whole entry): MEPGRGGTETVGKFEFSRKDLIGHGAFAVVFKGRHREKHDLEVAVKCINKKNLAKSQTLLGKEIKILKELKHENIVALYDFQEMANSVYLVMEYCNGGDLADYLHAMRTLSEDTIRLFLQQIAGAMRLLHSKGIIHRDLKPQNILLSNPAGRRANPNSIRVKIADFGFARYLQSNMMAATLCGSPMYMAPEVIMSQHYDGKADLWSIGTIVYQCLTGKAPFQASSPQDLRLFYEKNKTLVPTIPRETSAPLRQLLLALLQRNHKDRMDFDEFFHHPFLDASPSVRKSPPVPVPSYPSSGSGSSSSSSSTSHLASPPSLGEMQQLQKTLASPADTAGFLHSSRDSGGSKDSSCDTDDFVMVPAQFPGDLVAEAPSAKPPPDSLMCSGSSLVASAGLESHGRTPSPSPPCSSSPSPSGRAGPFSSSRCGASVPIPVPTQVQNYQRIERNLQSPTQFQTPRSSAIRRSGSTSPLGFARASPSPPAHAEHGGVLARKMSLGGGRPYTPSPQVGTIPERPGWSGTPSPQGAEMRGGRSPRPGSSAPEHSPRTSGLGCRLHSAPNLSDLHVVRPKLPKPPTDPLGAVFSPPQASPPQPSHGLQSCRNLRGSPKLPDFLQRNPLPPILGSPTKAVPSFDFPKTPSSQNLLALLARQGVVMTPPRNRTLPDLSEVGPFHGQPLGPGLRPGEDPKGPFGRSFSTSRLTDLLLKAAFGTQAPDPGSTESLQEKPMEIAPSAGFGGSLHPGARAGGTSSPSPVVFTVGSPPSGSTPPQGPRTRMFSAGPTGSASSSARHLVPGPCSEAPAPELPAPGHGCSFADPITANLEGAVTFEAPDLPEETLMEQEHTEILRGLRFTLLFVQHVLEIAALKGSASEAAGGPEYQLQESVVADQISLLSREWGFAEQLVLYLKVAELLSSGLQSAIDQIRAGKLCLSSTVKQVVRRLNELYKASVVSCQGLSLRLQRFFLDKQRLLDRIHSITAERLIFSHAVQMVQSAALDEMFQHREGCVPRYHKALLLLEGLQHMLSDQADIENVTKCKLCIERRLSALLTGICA

[2] = biological target: T2, Serine/threonine-protein kinase 3 (Homo sapiens) (UniProt Q13188); experiment: Inhibition of human MST2 assessed as enzyme activity at 1 uM using myelin basic protein as substrate preincubated for 20 mins followed by [gamma-33P]-ATP addition and measured after 120 mins by radiometric Hot-SpotSM Kinase assay relative to control
T2 sequence (whole entry): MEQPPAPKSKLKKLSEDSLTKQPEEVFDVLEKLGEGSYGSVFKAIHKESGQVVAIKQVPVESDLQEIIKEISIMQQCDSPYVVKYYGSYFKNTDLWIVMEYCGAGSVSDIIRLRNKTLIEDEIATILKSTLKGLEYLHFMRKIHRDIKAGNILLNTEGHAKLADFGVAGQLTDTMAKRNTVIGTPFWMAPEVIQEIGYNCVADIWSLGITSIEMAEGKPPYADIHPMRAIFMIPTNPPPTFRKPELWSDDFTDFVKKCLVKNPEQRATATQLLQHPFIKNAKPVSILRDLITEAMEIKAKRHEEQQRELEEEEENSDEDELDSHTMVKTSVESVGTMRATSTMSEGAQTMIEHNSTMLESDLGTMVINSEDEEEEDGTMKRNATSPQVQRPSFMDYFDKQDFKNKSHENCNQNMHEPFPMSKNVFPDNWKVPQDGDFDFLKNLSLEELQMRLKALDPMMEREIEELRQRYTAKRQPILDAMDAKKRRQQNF

[3] = biological target: Serine/threonine-protein kinase pim-1 (Homo sapiens) (UniProt P11309); experiment: Inhibition of human PIM1 assessed as enzyme activity at 1 uM using RSRHSSYPAGT as substrate preincubated for 20 mins followed by [gamma-33P]-ATP addition and measured after 120 mins by radiometric Hot-SpotSM Kinase assay relative to control
Serine/threonine-protein kinase pim-1 (Homo sapiens), sequence (P11309 whole entry, looked up): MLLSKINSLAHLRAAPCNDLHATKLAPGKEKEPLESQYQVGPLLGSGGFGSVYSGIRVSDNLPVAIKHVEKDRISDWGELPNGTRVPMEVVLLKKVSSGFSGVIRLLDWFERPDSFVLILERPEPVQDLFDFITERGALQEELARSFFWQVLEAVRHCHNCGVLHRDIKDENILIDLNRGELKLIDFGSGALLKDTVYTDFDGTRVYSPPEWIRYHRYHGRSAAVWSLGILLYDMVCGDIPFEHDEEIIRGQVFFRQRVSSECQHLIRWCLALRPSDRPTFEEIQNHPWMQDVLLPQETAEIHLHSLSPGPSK

[4] = biological target: T3, Serine/threonine-protein kinase Sgk3 (Homo sapiens) (UniProt Q96BR1); experiment: Inhibition of human SGK3 assessed as enzyme activity at 1 uM using GRPRTSSFAEG as substrate preincubated for 20 mins followed by [gamma-33P]-ATP addition and measured after 120 mins by radiometric Hot-SpotSM Kinase assay relative to control
T3 sequence (whole entry): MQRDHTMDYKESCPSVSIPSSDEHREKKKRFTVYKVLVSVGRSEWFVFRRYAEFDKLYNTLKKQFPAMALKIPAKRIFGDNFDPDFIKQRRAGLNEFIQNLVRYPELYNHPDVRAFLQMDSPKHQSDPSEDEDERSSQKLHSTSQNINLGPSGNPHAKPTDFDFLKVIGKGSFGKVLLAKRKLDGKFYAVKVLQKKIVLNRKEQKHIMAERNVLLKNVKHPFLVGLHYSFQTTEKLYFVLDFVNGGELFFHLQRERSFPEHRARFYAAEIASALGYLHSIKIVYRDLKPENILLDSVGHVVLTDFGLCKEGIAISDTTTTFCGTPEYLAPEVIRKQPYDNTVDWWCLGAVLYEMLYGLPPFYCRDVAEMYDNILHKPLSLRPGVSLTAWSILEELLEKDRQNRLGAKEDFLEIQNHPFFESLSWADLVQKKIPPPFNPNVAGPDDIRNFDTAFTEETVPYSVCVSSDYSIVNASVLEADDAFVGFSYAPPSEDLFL

[5] = biological target: Serine/threonine-protein kinase PLK3 (Homo sapiens) (UniProt Q9H4B4); experiment: Inhibition of human PLK3 assessed as enzyme activity at 1 uM using casein as substrate preincubated for 20 mins followed by [gamma-33P]-ATP addition and measured after 120 mins by radiometric Hot-SpotSM Kinase assay relative to control
Serine/threonine-protein kinase PLK3 (Homo sapiens), sequence (Q9H4B4 whole entry, looked up): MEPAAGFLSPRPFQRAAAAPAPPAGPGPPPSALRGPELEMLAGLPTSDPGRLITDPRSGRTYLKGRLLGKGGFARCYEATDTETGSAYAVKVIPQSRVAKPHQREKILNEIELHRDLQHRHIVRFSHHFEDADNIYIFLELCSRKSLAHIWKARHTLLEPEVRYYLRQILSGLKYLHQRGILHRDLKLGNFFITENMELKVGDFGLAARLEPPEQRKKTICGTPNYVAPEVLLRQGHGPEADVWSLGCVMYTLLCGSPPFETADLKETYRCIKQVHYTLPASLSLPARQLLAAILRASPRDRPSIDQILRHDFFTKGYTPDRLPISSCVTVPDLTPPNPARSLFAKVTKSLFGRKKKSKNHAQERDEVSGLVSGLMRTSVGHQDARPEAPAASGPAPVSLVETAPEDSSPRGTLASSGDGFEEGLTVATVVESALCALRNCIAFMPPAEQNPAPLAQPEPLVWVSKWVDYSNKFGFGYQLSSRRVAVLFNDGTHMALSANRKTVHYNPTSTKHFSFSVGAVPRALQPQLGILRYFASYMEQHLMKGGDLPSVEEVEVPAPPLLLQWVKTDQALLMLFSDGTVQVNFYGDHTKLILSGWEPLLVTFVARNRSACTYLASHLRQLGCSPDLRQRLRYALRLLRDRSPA

[6] = biological target: Serine/threonine-protein kinase PAK 1 (Homo sapiens) (UniProt Q13153); experiment: Inhibition of human PAK1 assessed as enzyme activity at 1 uM using RRRLSFAEPG as substrate preincubated for 20 mins followed by [gamma-33P]-ATP addition and measured after 120 mins by radiometric Hot-SpotSM Kinase assay relative to control
Serine/threonine-protein kinase PAK 1 (Homo sapiens), sequence (Q13153 whole entry): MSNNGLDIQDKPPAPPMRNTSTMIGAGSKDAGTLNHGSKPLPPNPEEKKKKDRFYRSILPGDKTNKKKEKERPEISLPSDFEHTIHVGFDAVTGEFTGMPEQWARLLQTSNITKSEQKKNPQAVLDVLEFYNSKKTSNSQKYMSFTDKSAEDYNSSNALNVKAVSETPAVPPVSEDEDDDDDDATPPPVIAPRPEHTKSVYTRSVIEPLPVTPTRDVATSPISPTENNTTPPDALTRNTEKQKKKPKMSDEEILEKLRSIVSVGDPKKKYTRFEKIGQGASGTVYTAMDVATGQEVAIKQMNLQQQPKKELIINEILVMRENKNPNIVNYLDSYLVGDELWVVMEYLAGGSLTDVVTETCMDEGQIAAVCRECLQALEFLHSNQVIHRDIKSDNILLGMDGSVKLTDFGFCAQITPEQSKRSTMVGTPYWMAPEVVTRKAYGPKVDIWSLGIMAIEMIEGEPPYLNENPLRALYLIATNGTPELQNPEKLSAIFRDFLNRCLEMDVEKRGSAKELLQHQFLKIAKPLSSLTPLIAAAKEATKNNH

SMILES	Activity [1]	Activity [2]	Activity [3]	Activity [4]	Activity [5]	Activity [6]
CC[C@H](Nc1ncnc2[nH]cnc12)c1nc2cccc(F)c2c(=O)n1-c1ccccc1	96.9%	96.9%	99.6%	97.2%	98.4%	98.7%
C[C@H](Nc1ncnc2nc[nH]c12)c1cc2cccc(Cl)c2c(=O)n1-c1ccccc1	111%	94.5%	99.6%	97.3%	95.1%	97.5%
CC(C)Oc1ccc(-c2nn([C@@H](C)c3oc4ccc(F)cc4c(=O)c3-c3cccc(F)c3)c3ncnc(N)c23)cc1F [UMBRALISIB]	100%	97.4%	98.2%	98.7%	96.7%	98.2%
